Key:
human ERβ = target: T1, human ERβ (Homo sapiens, UniProt Q92731); assay: Competition with [3H]-17β-estradiol for binding to ERβ; details: ligand binding domain of human ERβ in E. coli crude lysate, 2 nM [3H]-17β-estradiol, 5-15 hours at room temperature
T1 construct: made in house; host or cells: E. coli (crude lysate)
Method: Representative examples of the invention were evaluated for their ability to compete with 17β-estradiol for both ERα and ERβ. This test procedure provides the methodology for one to determine whether a particular compound binds to the estrogen receptor (and is therefore “estrogenic”) and whether there is selectivity for ERα or ERβ. […] 17β-estradiol is included as a standard reference for comparison. The procedure used is briefly described below. A crude lysate of E. coli expressing the estrogen receptor ligand binding domains (D, E, & F) of human ERα or ERβ was prepared. Both receptors and compounds were diluted in 1× Dulbecco's PBS (DPBS) supplemented with 1 mM EDTA. Using a high binding masked microtiter plate, 100 uL of receptor (1 uG/well) was combined with 2 nm [^3H]-17β-estradiol and various concentrations of compound. After between 5 and 15 hours at room temperature, the plates were washed with DPBS/1 mM EDTA and bound radioactivity determined by liquid scintillation counting. The IC50 is defined as the concentration of compound that decreases total 17β-estradiol binding by 50%.

human ERα = target: T2, human ERα (Homo sapiens, UniProt P03372); assay: Competition with [3H]-17β-estradiol for binding to ERα; details: ligand binding domain of human ERα in E. coli crude lysate, 2 nM [3H]-17β-estradiol, 5-15 hours at room temperature; read-out: ERα (nM) IC50
T2 construct: made in house; host or cells: E. coli (crude lysate)
T2 sequence (P03372 311-547 limits assumed): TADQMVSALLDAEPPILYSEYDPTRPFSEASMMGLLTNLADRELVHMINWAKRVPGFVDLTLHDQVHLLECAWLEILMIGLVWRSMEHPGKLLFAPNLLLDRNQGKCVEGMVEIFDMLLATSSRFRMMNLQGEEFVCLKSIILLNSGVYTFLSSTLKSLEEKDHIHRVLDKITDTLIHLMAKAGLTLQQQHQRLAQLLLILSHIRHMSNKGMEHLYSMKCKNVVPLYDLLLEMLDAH
Method: Representative examples of the invention were evaluated for their ability to compete with 17β-estradiol for both ERα and ERβ. This test procedure provides the methodology for one to determine whether a particular compound binds to the estrogen receptor (and is therefore “estrogenic”) and whether there is selectivity for ERα or ERβ. The values are shown in the Table infra and are reported as IC50s. 17β-estradiol is included as a standard reference for comparison. The procedure used is briefly described below. A crude lysate of E. coli expressing the estrogen receptor ligand binding domains (D, E, & F) of human ERα or ERβ was prepared. Both receptors and compounds were diluted in 1× Dulbecco's PBS (DPBS) supplemented with 1 mM EDTA. Using a high binding masked microtiter plate, 100 uL of receptor (1 uG/well) was combined with 2 nm [^3H]-17β-estradiol and various concentrations of compound. After between 5 and 15 hours at room temperature, the plates were washed with DPBS/1 mM EDTA and bound radioactivity determined by liquid scintillation counting. The IC50 is defined as the concentration of compound that decreases total 17β-estradiol binding by 50%.

T1 sequence (Q92731 264-498 limits assumed): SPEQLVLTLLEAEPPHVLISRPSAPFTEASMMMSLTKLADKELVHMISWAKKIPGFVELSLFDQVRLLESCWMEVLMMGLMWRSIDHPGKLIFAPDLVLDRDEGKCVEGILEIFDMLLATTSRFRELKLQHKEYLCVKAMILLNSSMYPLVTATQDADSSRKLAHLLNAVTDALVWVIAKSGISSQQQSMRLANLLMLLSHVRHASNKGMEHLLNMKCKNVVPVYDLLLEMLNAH

IC50 (human ERβ) | IC50 (human ERα) | melting point | Compound
10 nM | 70 nM | 238 to 240 °C | Oc1ccc2c(c1)COc1c-2cc2ccc(O)cc2c1-c1cc(F)cc(F)c1 [Example 44, 7-(3,5-Difluorophenyl)-5H-dibenzo[c,g]chromene-3,9-diol]
34 nM | 1220 nM | 245 to 248 °C | Oc1ccc2c(c1)COc1c-2cc2ccc(O)cc2c1-c1ccc(OC(F)(F)F)cc1 [Example 59, 7-(4-Trifluoromethoxyphenyl)-5H-dibenzo[c,g]chromene-3,9-diol]
0.8 nM | 4 nM | 187 to 189 °C | CCCCc1c2c(cc3ccc(O)cc13)-c1ccc(O)cc1CO2 [Example 49, 7-Butyl-5H-dibenzo[c,g]chromene-3,9-diol]
9.2 nM | 162 nM | > 250 °C | N#Cc1ccc(-c2c3c(cc4ccc(O)cc24)-c2ccc(O)cc2CO3)cc1 [Example 40, 7-(4-Cyanophenyl)-5H-dibenzo[c,g]chromene-3,9-diol]
11 nM | 487 nM | 193 to 196 °C | Cc1ccccc1-c1c2c(cc3ccc(O)cc13)-c1ccc(O)cc1CO2 [Example 24, 7-(2-Tolyl)-5H-dibenzo[c,g]chromene-3,9-diol]
9.3 nM | 320 nM | 239 to 242 °C | Oc1ccc2c(c1)COc1c-2cc2ccc(O)cc2c1-c1ccc(Cl)cc1 [Example 28, 7-(4-Chlorophenyl)-5H-dibenzo[c,g]chromene-3,9-diol]
349 nM | 531 nM | 171 to 173 °C | OCc1ccccc1-c1c2c(cc3ccc(O)cc13)-c1ccc(O)cc1CO2 [Example 22, 7-[2-(Hydroxymethyl)phenyl]-5H-dibenzo[c,g]chromene-3,9-diol]
6.2 nM | 206 nM | 235 to 237 °C | Oc1ccc2c(c1)COc1c-2cc2ccc(O)cc2c1-c1ccc(F)c(F)c1 [Example 36, 7-(3,4-Difluorophenyl)-5H-dibenzo[c,g]chromene-3,9-diol]
9.8 nM | 702 nM | 200 to 203 °C | COc1ccc(-c2c3c(cc4ccc(O)cc24)-c2ccc(O)cc2CO3)cc1 [Example 27, 7-(4-Methoxyphenyl)-5H-dibenzo[c,g]chromene-3,9-diol]
4.2 nM | 117 nM | 219 to 222 °C | Cc1cccc(-c2c3c(cc4ccc(O)cc24)-c2ccc(O)cc2CO3)c1 [Example 25, 7-(3-Tolyl)-5H-dibenzo[c,g]chromene-3,9-diol]
1.4 nM | 75 nM | 233 to 236 °C | Oc1ccc2c(c1)COc1c-2cc2ccc(O)cc2c1-c1cccs1 [Example 30, 7-Thien-2-yl-5H-dibenzo[c,g]chromene-3,9-diol]
10 nM | 263 nM | 228 to 231 °C | Oc1ccc2c(c1)COc1c-2cc2ccc(O)cc2c1-c1cccc(C(F)(F)F)c1 [Example 43, 7-(3-Trifluoromethylphenyl)-5H-dibenzo[c,g]chromene-3,9-diol]
28 nM | 655 nM | 238 to 240 °C | Cc1ccc(-c2c3c(cc4ccc(O)cc24)-c2ccc(O)cc2CO3)cc1F [Example 41, 7-(3-Fluoro-4-Methylphenyl)-5H-dibenzo[c,g]chromene-3,9-diol]
34 nM | 151 nM | 252 to 255 °C | Oc1ccc2c(c1)COc1c-2cc2ccc(O)cc2c1-c1cc(Cl)cc(Cl)c1 [Example 45, 7-(3,5-Dichlorophenyl)-5H-dibenzo[c,g]chromene-3,9-diol]
40 nM | 661 nM | 110 to 112 °C | Oc1ccc2c(c1)COc1c-2cc2ccc(O)cc2c1-c1cccc(OC(F)(F)F)c1 [Example 58, 7-(3-Trifluoromethoxyphenyl)-5H-dibenzo[c,g]chromene-3,9-diol]
4.1 nM | 137 nM | 238 to 240 °C | Cc1ccc(-c2c3c(cc4ccc(O)cc24)-c2ccc(O)cc2CO3)cc1 [Example 26, 7-(4-Tolyl)-5H-dibenzo[c,g]chromene-3,9-diol]
4.1 nM | 137 nM | 225 to 227 °C | Oc1ccc2c(c1)COc1c-2cc2ccc(O)cc2c1-c1ccccc1 [Example 23, 7-Phenyl-5H-dibenzo[c,g]chromene-3,9-diol]
3.3 nM | 93 nM | 225 to 227 °C | Oc1ccc2c(c1)COc1c-2cc2ccc(O)cc2c1-c1cccc(F)c1 [Example 32, 7-(3-Fluorophenyl)-5H-dibenzo[c,g]chromene-3,9-diol]
2.7 nM | 32 nM | > 280 °C | N#Cc1c2c(cc3ccc(O)cc13)-c1ccc(O)cc1CO2 [Example 14, 3,9-Dihydroxy-5H-dibenzo[c,g]chromene-7-carbonitrile]
6.4 nM | 298 nM | 229 to 232 °C | Oc1ccc2c(c1)COc1c-2cc2ccc(O)cc2c1-c1ccc(F)cc1 [Example 29, 7-(4-Fluorophenyl)-5H-dibenzo[c,g]chromene-3,9-diol]
